The values below come from patent US7855292B2, “Sulfonamide compounds” (Janssen Pharmaceutica NV, priority 2004, dated 2010).

Assay [1] deals with T1, CCK2 receptor (Homo sapiens, UniProt P32239).
T1 construct: analyzed for ZFP expression as well as CCK2R induction upon addition of doxycycline to the culture medium; endogenous in cells
T1 sequence (P32239 1-447): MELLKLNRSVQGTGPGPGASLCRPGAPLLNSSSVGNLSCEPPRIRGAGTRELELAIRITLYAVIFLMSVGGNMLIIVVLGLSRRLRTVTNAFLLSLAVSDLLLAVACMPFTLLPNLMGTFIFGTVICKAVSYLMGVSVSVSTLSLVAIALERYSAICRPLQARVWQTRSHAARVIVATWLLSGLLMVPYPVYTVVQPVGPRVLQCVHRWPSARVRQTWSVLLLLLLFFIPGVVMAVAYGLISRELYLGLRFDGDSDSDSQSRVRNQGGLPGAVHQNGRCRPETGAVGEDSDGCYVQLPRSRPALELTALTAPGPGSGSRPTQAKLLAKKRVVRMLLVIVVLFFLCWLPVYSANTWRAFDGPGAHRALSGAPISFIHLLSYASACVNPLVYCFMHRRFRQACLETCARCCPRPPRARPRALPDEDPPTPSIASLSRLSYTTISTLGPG
Nature of the assay: CCK2 binding assay ([125I]-BH-CCK-8S displacement, HEKZFP membranes). As to conditions: membranes of doxycycline-induced HEKZFP cells; 20 pM [125I]-BH-CCK-8S; 60 min at 21±3° C.; read-out: CCK2 pKi (converted).

In assay [2] the target is T2, CCK-1 receptor (Homo sapiens, UniProt P32238).
T2 construct: expressed in transfected cells; host or cells: CHO-K1
T2 sequence (P32238 1-428): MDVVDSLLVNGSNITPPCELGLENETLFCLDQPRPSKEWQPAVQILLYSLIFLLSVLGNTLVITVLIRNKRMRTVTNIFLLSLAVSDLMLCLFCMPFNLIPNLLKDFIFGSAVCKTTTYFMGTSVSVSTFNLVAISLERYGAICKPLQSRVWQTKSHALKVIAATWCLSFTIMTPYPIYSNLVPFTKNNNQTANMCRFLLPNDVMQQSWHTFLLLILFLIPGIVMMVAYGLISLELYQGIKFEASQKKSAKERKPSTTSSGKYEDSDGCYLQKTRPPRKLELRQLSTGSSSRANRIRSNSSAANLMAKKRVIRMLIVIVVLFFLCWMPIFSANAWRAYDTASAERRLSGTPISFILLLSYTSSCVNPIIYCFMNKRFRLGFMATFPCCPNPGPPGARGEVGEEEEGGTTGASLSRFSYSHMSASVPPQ
Nature of the assay: CCK1 binding assay ([125I]-BH-CCK-8S displacement, CHO-K1 membranes). As to conditions: membranes of CHO-K1 cells stably transfected with the CCK-1 receptor; 20 pM [125I]-BH-CCK-8S; 0.3 μM PD-134,308 present; 60 min at 21±3° C.; read-out: CCK1 pKi (converted). A digest of the protocol:
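Membranes from CHO-K1 cells stably expressing CCK-1 incubated 1 h at 21±3° C with 20 pM [125I]-BH-CCK-8S in HEPES buffer pH 7.2 containing 0.3 μM PD-134,308 to block CCK-2. Bound radioactivity read by gamma counting after filtration. pKi derived via Cheng-Prusoff, with specific binding defined using 2-NAP.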

Regarding `COC(=O)[C@H](Cc1ccc(Cl)c(Br)c1)NC(=O)c1ccc(I)cc1NS(=O)(=O)c1cccc2nsnc12` [Example 122, (S)-2-[2-(Benzo[1,2,5]thiadiazole-4-sulfonylamino)-4-iodo-benzoylamino]-3-(3-bromo-4-chloro-phenyl)-propionic acid methyl ester], the Ki in assay [1] was 398 nM; in assay [2], 158 nM.
For `COC(=O)[C@H](Cc1ccc(F)c(Br)c1)NC(=O)c1ccc(I)cc1NS(=O)(=O)c1cccc2nsnc12` [Example 123, (S)-2-[2-(Benzo[1,2,5]thiadiazole-4-sulfonylamino)-4-iodo-benzoylamino]-3-(3-bromo-4-fluoro-phenyl)-propionic acid methyl ester] the same measures were 158 nM and 100 nM.
For `COC(=O)[C@H](Cc1ccc(F)c(Br)c1)NC(=O)c1ccc(I)cc1NS(=O)(=O)c1cccc2nccnc12` [Example 124, (S)-3-(3-Bromo-4-fluoro-phenyl)-2-[4-iodo-2-(quinoxaline-5-sulfonylamino)-benzoylamino]-propionic acid methyl ester] the same measures were 50.1 nM and 316 nM.
For `COC(=O)[C@H](Cc1ccc(F)c(Br)c1)NC(=O)c1ccc(I)cc1NS(=O)(=O)c1c(F)cccc1F` [Example 125, (S)-3-(3-Bromo-4-fluoro-phenyl)-2-[2-(2,6-difluoro-benzenesulfonylamino)-4-iodo-benzoylamino]-propionic acid methyl ester] the same measures were 631 nM and 316 nM.
With `O=C(N[C@@H](Cc1ccc(F)c(Br)c1)C(=O)O)c1ccc(I)cc1NS(=O)(=O)c1cccc2nccnc12` [Example 126, (S)-3-(3-Bromo-4-fluoro-phenyl)-2-[4-iodo-2-(quinoxaline-5-sulfonylamino)-benzoylamino]-propionic acid], the Ki in assay [1] is 5.01 nM; in assay [2], 251 nM.
For `O=C(N[C@@H](Cc1ccc(F)c(Br)c1)C(=O)O)c1ccc(I)cc1NS(=O)(=O)c1c(F)cccc1F` [Example 127, (S)-3-(3-Bromo-4-fluoro-phenyl)-2-[2-(2,6-difluoro-benzenesulfonylamino)-4-iodo-benzoylamino]-propionic acid], the figures for the Ki in assay [1] and in assay [2] were 79.4 nM and 200 nM, respectively.
For `O=C(N[C@@H](Cc1ccc(Cl)c(Cl)c1)C(=O)NCc1cccc(Cl)c1)c1ccc(Cl)cc1NS(=O)(=O)c1cccc2nsnc12` [Example 128, (S)-2-(Benzo[1,2,5]thiadiazole-4-sulfonylamino)-4-chloro-N-[1-(3-chloro-benzylcarbamoyl)-2-(3,4-dichloro-phenyl)-ethyl]-benzamide] the same measures were 631 nM and 100 nM.
For `O=C(N[C@@H](Cc1ccc(Cl)c(Cl)c1)C(=O)NCc1ccccc1)c1ccc(Cl)cc1NS(=O)(=O)c1cccc2nsnc12` [Example 129, (S)-2-(Benzo[1,2,5]thiadiazole-4-sulfonylamino)-N-[1-benzylcarbamoyl-2-(3,4-dichloro-phenyl)-ethyl]-4-chloro-benzamide], in that order: 631 nM and 100 nM.
For `O=C(N[C@@H](Cc1ccc(Cl)c(Cl)c1)C(=O)NCc1ccc(F)cc1)c1ccc(Cl)cc1NS(=O)(=O)c1cccc2nsnc12` [Example 130, (S)-2-(Benzo[1,2,5]thiadiazole-4-sulfonylamino)-4-chloro-N-[2-(3,4-dichloro-phenyl)-(4-fluoro-benzylcarbamoyl)-ethyl]-benzamide], in that order: 316 nM and 398 nM.
As for `O=C(N[C@@H](Cc1ccc(Cl)c(Cl)c1)C(=O)O)c1ccc(Br)cc1NS(=O)(=O)c1cccc2nsnc12` [Example 131, (S)-2-[2-(Benzo[1,2,5]thiadiazole-4-sulfonylamino)-4-bromo-benzoylamino]-3-(3,4-dichloro-phenyl)-propionic acid], the Ki was 15.8 nM in assay [1] and 158 nM in assay [2].
For the compound `O=C(N[C@@H](Cc1ccc(Cl)c(Cl)c1)C(=O)O)c1ccc(I)cc1NS(=O)(=O)c1cccc2nccnc12` [Example 132, (S)-3-(3,4-Dichloro-phenyl)-2-[4-iodo-2-(quinoxaline-5-sulfonylamino)-benzoylamino]-propionic acid], the figures for the Ki in assay [1] and in assay [2] were 15.8 nM and 251 nM, respectively.
For `O=C(N[C@@H](Cc1ccc(Cl)cc1Cl)C(=O)O)c1ccc(I)cc1NS(=O)(=O)c1cccc2nsnc12` [Example 133, (S)-2-[2-(Benzo[1,2,5]thiadiazole-4-sulfonylamino)-4-iodo-benzoylamino]-3-(2,4-dichloro-phenyl)-propionic acid], in that order: 31.6 nM and 398 nM.
For `O=C(N[C@@H](Cc1cc(F)c(Cl)cc1Cl)C(=O)O)c1ccc(I)cc1NS(=O)(=O)c1cccc2nsnc12` [Example 134, (S)-2-[2-(Benzo[1,2,5]thiadiazole-4-sulfonylamino)-4-iodo-benzoylamino]-3-(2,4-dichloro-5-fluoro-phenyl)-propionic acid] the same measures were 20 nM and 501 nM.
`O=C(N[C@@H](Cc1cccc(I)c1)C(=O)O)c1ccc(I)cc1NS(=O)(=O)c1cccc2nsnc12` [Example 135, (S)-2-[2-(Benzo[1,2,5]thiadiazole-4-sulfonylamino)-4-iodo-benzoylamino]-3-(3-iodo-phenyl)-propionic acid]: the Ki in assay [1] is 7.94 nM; in assay [2], 501 nM.
For `COC(=O)[C@H](Cc1ccc(Cl)c(I)c1)NC(=O)c1ccc(I)cc1NS(=O)(=O)c1cccc2nsnc12` [Example 136, (S)-2-[2-(Benzo[1,2,5]thiadiazole-4-sulfonylamino)-4-iodo-benzoylamino]-3-(4-chloro-3-iodo-phenyl)-propionic acid methyl ester], in that order: 316 nM and 39.8 nM.
For `COC(=O)[C@H](Cc1ccc(Cl)c(I)c1)NC(=O)c1ccc(I)cc1NS(=O)(=O)c1cccc2nccnc12` [Example 137, (S)-3-(4-Chloro-3-iodo-phenyl)-2-[4-iodo-2-(quinoxaline-5-sulfonylamino)-benzoylamino]-propionic acid methyl ester] the same measures were 200 nM and 79.4 nM.
For `O=C(N[C@@H](Cc1ccc(Cl)c(I)c1)C(=O)O)c1ccc(I)cc1NS(=O)(=O)c1cccc2nccnc12` [Example 138, (S)-3-(4-Chloro-3-iodo-phenyl)-2-[4-iodo-2-(quinoxaline-5-sulfonylamino)-benzoylamino]-propionic acid] the same measures were 50.1 nM and 100 nM.
Consider `O=C(N[C@@H](Cc1ccc(Cl)c(Cl)c1)C(=O)Nc1ccccc1)c1ccc(Cl)cc1NS(=O)(=O)c1cccc2nsnc12` [Example 139, (S)-2-(Benzo[1,2,5]thiadiazole-4-sulfonylamino)-4-chloro-N-[2-(3,4-dichloro-phenyl)-phenylcarbamoyl-ethyl]-benzamide], for which the Ki was 631 nM in assay [1] and 79.4 nM in assay [2].
For `O=C(N[C@@H](Cc1ccc(Cl)c(Cl)c1)C(=O)N1CCCCC1)c1ccc(Cl)cc1NS(=O)(=O)c1cccc2nsnc12` [Example 140, (S)-2-(Benzo[1,2,5]thiadiazole-4-sulfonylamino)-4-chloro-N-[1-(3,4-dichloro-benzyl)-2-oxo-2-piperidin-1-yl-ethyl]-benzamide] the same measures were 316 nM and 126 nM.
